Among the data in patent US20100256104A1, “NOVEL AMIDE COMPOUNDS” (ASTRAZENECA R&D, priority 2009, published 2010) are IC50 values, retold here.

In the assay the target is T1, recombinant human GR (Homo sapiens, UniProt P04150).
T1 construct: purchased Panvera/Invitrogen P2812 (kit P2893)
T1 sequence (P04150 1-777): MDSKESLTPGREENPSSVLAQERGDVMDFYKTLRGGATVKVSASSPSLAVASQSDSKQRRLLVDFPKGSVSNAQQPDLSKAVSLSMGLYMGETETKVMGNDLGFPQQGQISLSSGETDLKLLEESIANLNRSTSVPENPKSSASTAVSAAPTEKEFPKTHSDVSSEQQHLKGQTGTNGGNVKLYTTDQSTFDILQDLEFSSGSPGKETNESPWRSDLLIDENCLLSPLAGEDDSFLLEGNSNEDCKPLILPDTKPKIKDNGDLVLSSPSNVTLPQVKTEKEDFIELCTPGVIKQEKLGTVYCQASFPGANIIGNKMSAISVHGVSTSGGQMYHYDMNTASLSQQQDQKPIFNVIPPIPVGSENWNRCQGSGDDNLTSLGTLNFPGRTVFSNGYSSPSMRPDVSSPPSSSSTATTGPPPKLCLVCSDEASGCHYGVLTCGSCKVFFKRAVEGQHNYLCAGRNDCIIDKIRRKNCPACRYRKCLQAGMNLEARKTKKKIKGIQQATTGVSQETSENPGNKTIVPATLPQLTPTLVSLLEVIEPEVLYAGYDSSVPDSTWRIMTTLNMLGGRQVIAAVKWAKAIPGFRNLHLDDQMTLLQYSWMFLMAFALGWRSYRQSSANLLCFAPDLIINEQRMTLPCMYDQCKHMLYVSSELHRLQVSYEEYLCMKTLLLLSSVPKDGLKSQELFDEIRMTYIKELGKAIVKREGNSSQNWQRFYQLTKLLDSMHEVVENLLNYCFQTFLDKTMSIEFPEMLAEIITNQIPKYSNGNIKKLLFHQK
Put plainly: Human Glucocorticoid Receptor (GR) Assay, fluorescence polarization competition with GS Red tracer. The conditions noted are these: 2 hours at room temperature, 100% control 10 μM Dexamethasone, XLfit model 205, read-out: Inhibition of GR binding, IC50. The essentials:
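Fluorescence polarization competition: recombinant human GR with GS Red tracer, stabilizing peptide and DTT in potassium phosphate/sodium molybdate/EDTA buffer. 2 h in dark at room temperature, read at ex 530/em 590 nm. Controls: DMSO (0%) and 10 μM dexamethasone (100%).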
For orientation: In fluorescence polarisation assays a small probe gives low polarisation when free and higher when bound to something large.
By IC50 is commonly meant the concentration that inhibits the measured activity by half. For `COCC(=O)O[C@]1(C(=O)SCF)[C@H](C)C[C@H]2[C@@H]3CCC4=Cc5c(cnn5-c5cccc(C(=O)NCc6cccnc6)c5)C[C@]4(C)[C@@]3(F)[C@@H](O)C[C@@]21C` [Example 46, (1R,2R,3aS,3bS, 10aS,10bR,11S,12aS)-10b-fluoro-1-{[(fluoromethyl)sulfanyl]carbonyl}-11-hydroxy-2,10a,12a-trimethyl-7-{3-[(pyridin-3-ylmethyl)carbamoyl]phenyl}-1,2,3,3a,3b,4,5,7,10, 10a,10b,11,12,12a-tetradecahydrocyclo-penta[5,6]naphtho [1,2-f]indazol-1-yl methoxyacetate], the half-maximal inhibitory concentration (IC50) came out at 3.3 nM. On to `COCC(=O)O[C@]1(C(=O)SCF)[C@H](C)C[C@H]2[C@@H]3CCC4=Cc5c(cnn5-c5cccc(C(=O)N6CCC[C@@H]6C(N)=O)c5)C[C@]4(C)[C@@]3(F)[C@@H](O)C[C@@]21C` [Example 47, (1R,2R,3aS,3bS, 10aS,10bR,11S,12aS)-7-(3-{[(2R)-2-carbamoyl-pyrrolidin-1-yl]carbonyl}phenyl)-10b-fluoro-1-{[(fluoromethyl)sulfanyl]carbonyl}-11-hydroxy-2,10a,12a-trimethyl-1,2,3,3a,3b,4,5,7,10, 10a,10b,11,12,12a-tetradecahydrocyclo-penta[5,6]naphtho [1,2-f]indazol-1-yl methoxyacetate], for which the IC50 is 7.5 nM. For the molecule `CCC(=O)O[C@]1(C(=O)SCCO)CC[C@H]2[C@@H]3CCC4=Cc5c(cnn5-c5cccc(C(=O)N6CCC[C@@H]6C(N)=O)c5)C[C@]4(C)[C@H]3[C@@H](O)C[C@@]21C` [Example 48, (1R,3aS,3bS,10aR, 10bS,11S,12aS)-7-(3-{[(2R)-2-carbamoyl-pyrrolidin-1-yl]carbonyl}phenyl)-11-hydroxy-1-{[(2-hydroxyethyl)sulfanyl]carbonyl}-10a,12a-dimethyl-1,2,3,3a,3b,4,5,7,10, 10a,10b,11,12,12a-tetradecahydrocyclo-penta[5,6]naphtho [1,2-f]indazol-1-yl propanoate], the 50% inhibitory concentration (IC50) is 6.3 nM. Consider `C[C@]12Cc3cnn(-c4cccc(C(=O)N5CCC[C@@H]5C(N)=O)c4)c3C=C1CC[C@@H]1[C@@H]2[C@@H](O)C[C@@]2(C)[C@H]1CC[C@]2(OC(=O)c1cocn1)C(=O)SCC#N` [Example 49, (1R,3aS,3bS,10aR, 10bS,11S,12aS)-7-(3-{[(2R)-2-carbamoyl-pyrrolidin-1-yl]carbonyl}phenyl)-1-{[(cyanomethyl)sulfanyl]carbonyl}-11-hydroxy-10a,12a-dimethyl-1,2,3,3a,3b,4,5,7,10, 10a,10b,11,12,12a-tetradecahydrocyclo-penta[5,6]naphtho [1,2-f]indazol-1-yl 1,3-oxazole-4-carboxylate], for which the IC50 stood at 12 nM. Consider `C[C@]12Cc3cnn(-c4cccc(C(=O)N5CCC[C@@H]5C(N)=O)c4)c3C=C1CC[C@@H]1[C@@H]2[C@@H](O)C[C@@]2(C)[C@H]1CC[C@]2(OC(=O)c1cocn1)C(=O)SCF` [Example 50, (1R,3aS,3bS,10aR, 10bS,11S,12aS)-7-(3-{[(2R)-2-carbamoyl-pyrrolidin-1-yl]carbonyl}phenyl)-1-{[(fluoromethyl)sulfanyl]carbonyl}-11-hydroxy-10a,12a-dimethyl-1,2,3,3a,3b,4,5,7,10, 10a,10b,11,12,12a-tetradecahydrocyclo-penta[5,6]naphtho [1,2-f]indazol-1-yl 1,3-oxazole-4-carboxylate], for which the IC50 stood at 8.2 nM. On to `COCC(=O)O[C@]1(C(=O)SCC#N)CC[C@H]2[C@@H]3CCC4=Cc5c(cnn5-c5cccc(C(=O)NCC(N)=O)c5)C[C@]4(C)[C@H]3[C@@H](O)C[C@@]21C` [Example 51, (1R,3aS,3bS,10aR, 10bS,11S,12aS)-7-{3-[(2-amino-2-oxoethyl)carbamoyl]phenyl}-1-{[(cyanomethyl)sulfanyl]carbonyl}-11-hydroxy-10a,12a-dimethyl-1,2,3,3a,3b,4,5,7,10, 10a,10b,11,12,12a-tetradecahydrocyclo-penta[5,6]naphtho [1,2-f]indazol-1-yl methoxyacetate], for which the IC50 was determined as 2.8 nM. Take `COCC(=O)O[C@]1(C(=O)SCC#N)CC[C@H]2[C@@H]3CCC4=Cc5c(cnn5-c5cccc(C(=O)NCc6cccnc6)c5)C[C@]4(C)[C@H]3[C@@H](O)C[C@@]21C` [Example 52, (1R,3aS,3bS,10aR, 10bS,11S,12aS)-1-{[(cyanomethyl)sulfanyl]carbonyl}-11-hydroxy-10a,12a-dimethyl-7-{3-[(pyridin-3-ylmethyl)carbamoyl]phenyl}-1,2,3,3a,3b,4,5,7,10, 10a,10b,11,12,12a-tetradecahydrocyclo-penta[5,6]naphtho [1,2-f]indazol-1-yl methoxyacetate]: the 50% inhibitory concentration (IC50) came out at 1.5 nM. The figure for `CSC(=O)[C@@]1(OC(=O)C2CC2)CC[C@H]2[C@@H]3CCC4=Cc5c(cnn5-c5cccc(C(=O)N6CCC[C@@H]6C(N)=O)c5)C[C@]4(C)[C@@]3(F)[C@@H](O)C[C@@]21C` [Example 53, (1R,3aS,3bS,10aS,10bR,11S,12aS)-7-(3-{[(2R)-2-carbamoylpyrrolidin-1-yl]carbonyl}phenyl)-10b-fluoro-11-hydroxy-10a,12a-dimethyl-1-[(methylsulfanyl)carbonyl]-1,2,3,3a,3b,4,5,7,10,10a,10b,11,12,12a-tetradecahydrocyclopenta[5,6]naphtho[1,2-f]indazol-1-yl cyclopropanecarboxylate] is 2.5 nM. For the molecule `C[C@]12Cc3cnn(-c4cccc(C(=O)N5CCC[C@@H]5C(N)=O)c4)c3C=C1CC[C@H]1[C@@H]3CC[C@](OC(=O)C4CC4)(C(=O)SCC#N)[C@@]3(C)C[C@H](O)[C@@]12F` [Example 54, (1R,3aS,3bS,10aS, 10bR,11S,12aS)-7-(3-{[(2R)-2-carbamoyl-pyrrolidin-1-yl]carbonyl}phenyl)-1-{[(cyanomethyl)sulfanyl]carbonyl}-10b-fluoro-11-hydroxy-10a,12a-dimethyl-1,2,3,3a, 3b,4,5,7,10,10a,- 10b,11,12,12a-tetradeca-hydrocyclo-penta[5,6]naphtho [1,2-f]indazol-1-yl cyclopropanecarboxylate], the IC50 is 4.2 nM. Regarding `C[C@]12Cc3cnn(-c4cccc(C(=O)N5CCC[C@@H]5C(N)=O)c4)c3C=C1CC[C@H]1[C@@H]3CC[C@](OC(=O)C4CC4)(C(=O)SCF)[C@@]3(C)C[C@H](O)[C@@]12F` [Example 55, (1R,3aS,3bS,10aS, 10bR,11S,12aS)-7-(3-{[(2R)-2-carbamoyl-pyrrolidin-1-yl]carbonyl}phenyl)-10b-fluoro-1-{[(fluoromethyl)sulfanyl]carbonyl}-11-hydroxy-10a,12a-dimethyl-1,2,3,3a,3b,4,5,7,10, 10a,10b,11,12,12a-tetradecahydrocyclo-penta[5,6]naphtho [1,2-f]indazol-1-yl cyclopropanecarboxylate], the IC50 was 3.5 nM. `COCC(=O)O[C@]1(C(=O)SC)CC[C@H]2[C@@H]3CCC4=Cc5c(cnn5-c5cccc(C(=O)N6CCC[C@@H]6C(N)=O)c5)C[C@]4(C)[C@@]3(F)[C@@H](O)C[C@@]21C` [Example 56, (1R,3aS,3bS,10aS,10bR,11S,12aS)-7-(3-{[(2R)-2-carbamoylpyrrolidin-1-yl]carbonyl}phenyl)-10b-fluoro-11-hydroxy-10a,12a-dimethyl-1-[(methylsulfanyl)carbonyl]-1,2,3,3a,3b,4,5,7,10,10a,10b,11,12,12a-tetradecahydrocyclopenta[5,6]naphtho[1,2-f]indazol-1-yl methoxyacetate]: the IC50 stood at 8.6 nM. `COCC(=O)O[C@]1(C(=O)SCC#N)CC[C@H]2[C@@H]3CCC4=Cc5c(cnn5-c5cccc(C(=O)N6CCC[C@@H]6C(N)=O)c5)C[C@]4(C)[C@@]3(F)[C@@H](O)C[C@@]21C` [Example 57, (1R,3aS,3bS,10aS, 10bR,11S,12aS)-7-(3-{[(2R)-2-carbamoyl-pyrrolidin-1-yl]carbonyl}phenyl)-1-{[(cyanomethyl)sulfanyl]carbonyl}-10b-fluoro-11-hydroxy-10a,12a-dimethyl-1,2,3,3a,3b,4,5,7,10, 10a,10b,11,12,12a-tetradecahydrocyclo-penta[5,6]naphtho [1,2-f]indazol-1-yl methoxyacetate]: the IC50 was found to be 10 nM. For the molecule `CCC(=O)O[C@]1(C(=O)SCCO)CC[C@H]2[C@@H]3CCC4=Cc5c(cnn5-c5cccc(C(=O)N6CCC[C@@H]6C(N)=O)c5)C[C@]4(C)[C@@]3(F)[C@@H](O)C[C@@]21C` [Example 58, (1R,3aS,3bS,10aS, 10bR,11S,12aS)-7-(3-{[(2R)-2-carbamoyl-pyrrolidin-1-yl]carbonyl}phenyl)-10b-fluoro-11-hydroxy-1-{[(2-hydroxyethyl)sulfanyl]carbonyl}-10a,12a-dimethyl-1,2,3,3a,3b,4,5,7,10, 10a,10b,11,12,12a-tetradecahydrocyclo-penta[5,6]naphtho [1,2-f]indazol-1-yl propanoate], the 50% inhibitory concentration (IC50) was found to be 6.9 nM.
